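Results reflect a 48-hour exposure of cells in 96-well plates to compound at five concentrations. Definition used: TGI = concentration required for complete inhibition of growth.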
Assays:
Test in all cases: DTP human tumour cell line panel, 48 h
[1] = tested on: CCRF-CEM leukemia
[2] = tested on: RXF 393 renal
[3] = tested on: SF-295 CNS
[4] = tested on: RPMI-8226 leukemia
[5] = tested on: HL-60(TB) leukemia
[6] = tested on: HCT-15 colon
[7] = tested on: LOX IMVI melanoma
[8] = tested on: TK-10 renal
[9] = tested on: IGROV1 ovarian
[10] = tested on: MDA-MB-231 breast
[11] = tested on: SF-268 CNS
[12] = tested on: SW-620 colon
[13] = tested on: NCI-H460 lung
[14] = tested on: A498 renal
[15] = tested on: MALME-3M melanoma
[16] = tested on: OVCAR-3 ovarian
[17] = tested on: U251 CNS
[18] = tested on: SK-MEL-2 melanoma
[19] = tested on: DU-145 prostate
[20] = tested on: SK-MEL-28 melanoma
[21] = tested on: KM12 colon
[22] = tested on: SN12C renal
[23] = tested on: PC-3 prostate
[24] = tested on: BT-549 breast
[25] = tested on: NCI-H23 lung
[26] = tested on: MOLT-4 leukemia
[27] = tested on: EKVX NSCLC
[28] = tested on: M14 melanoma
[29] = tested on: SK-MEL-5 melanoma
[30] = tested on: MCF7 breast
[31] = tested on: MDA-MB-435
[32] = tested on: UO-31 renal
[33] = tested on: HT29 colon
[34] = tested on: SNB-75 CNS
[35] = tested on: A549 NSCLC
[36] = tested on: K-562 leukemia
[37] = tested on: CAKI-1 renal
[38] = tested on: UACC-62 melanoma
[39] = tested on: ACHN renal
[40] = tested on: NCI-H522 lung
[41] = tested on: SNB-19 CNS
[42] = tested on: MDA-N
[43] = tested on: SR leukemia
[44] = tested on: HS 578T breast
[45] = tested on: SF-539 CNS
[46] = tested on: 786-0 renal
[47] = tested on: OVCAR-8 ovarian
[48] = tested on: NCI-H226 lung
[49] = tested on: OVCAR-5 ovarian
[50] = tested on: COLO 205 colon
[51] = tested on: HCT-116 colon
[52] = tested on: NCI/ADR-RES ovarian
[53] = tested on: HCC-2998 colon
[54] = tested on: UACC-257 melanoma
[55] = tested on: SK-OV-3 ovarian
[56] = tested on: OVCAR-4 ovarian
[57] = tested on: HOP-92 NSCLC
[58] = tested on: HOP-62 NSCLC
[59] = tested on: T-47D breast

CC12C(=O)OC(=O)C1(C)C1C=CC2O1 (configuration not stated)
TGI [1]: > 100 µM | TGI [2]: > 100 µM | TGI [3]: > 100 µM | TGI [4]: > 100 µM | TGI [5]: > 100 µM | TGI [6]: > 100 µM | TGI [7]: > 100 µM | TGI [8]: > 100 µM | TGI [9]: > 100 µM | TGI [10]: > 100 µM | TGI [11]: > 100 µM | TGI [12]: > 100 µM | TGI [13]: > 100 µM | TGI [14]: > 100 µM | TGI [15]: > 100 µM | TGI [16]: 99 µM | TGI [17]: > 100 µM | TGI [18]: > 100 µM | TGI [19]: > 100 µM | TGI [20]: > 100 µM | TGI [21]: > 100 µM | TGI [22]: > 100 µM | TGI [23]: > 100 µM | TGI [24]: > 100 µM | TGI [25]: > 100 µM | TGI [26]: > 100 µM | TGI [27]: > 100 µM | TGI [28]: > 100 µM | TGI [29]: > 100 µM | TGI [30]: > 100 µM | TGI [31]: > 100 µM | TGI [32]: > 100 µM | TGI [33]: > 100 µM | TGI [34]: > 100 µM | TGI [35]: > 100 µM | TGI [36]: > 100 µM | TGI [37]: > 100 µM | TGI [38]: > 100 µM | TGI [39]: > 100 µM | TGI [40]: > 100 µM | TGI [41]: > 100 µM | TGI [42]: > 100 µM | TGI [43]: > 100 µM | TGI [44]: > 100 µM | TGI [45]: > 100 µM | TGI [46]: > 100 µM | TGI [47]: > 100 µM | TGI [48]: 48.1 µM | TGI [49]: > 100 µM | TGI [50]: > 100 µM | TGI [51]: > 100 µM | TGI [52]: > 100 µM | TGI [53]: > 100 µM | TGI [54]: > 100 µM | TGI [55]: > 100 µM

O=[N+]([O-])c1ccc(C(=Nc2ccccc2)SSC(=Nc2ccccc2)c2ccc([N+](=O)[O-])o2)o1
TGI [2]: 4.55 µM | TGI [3]: 8.31 µM | TGI [5]: 8.61 µM | TGI [6]: 2.2 µM | TGI [7]: 3.83 µM | TGI [8]: 13.9 µM | TGI [9]: 3.51 µM | TGI [10]: 7.92 µM | TGI [11]: 4.4 µM | TGI [13]: > 25.5 µM | TGI [15]: 5.09 µM | TGI [16]: 3.38 µM | TGI [17]: 2.24 µM | TGI [18]: 6.15 µM | TGI [19]: 3.6 µM | TGI [20]: 7.04 µM | TGI [21]: 4.15 µM | TGI [22]: 4.48 µM | TGI [23]: 4.03 µM | TGI [24]: 3.69 µM | TGI [25]: 3.38 µM | TGI [26]: > 24 µM | TGI [27]: 3.48 µM | TGI [28]: 4.85 µM | TGI [56]: 3 µM | TGI [29]: 20.9 µM | TGI [31]: 6.17 µM | TGI [32]: 2.82 µM | TGI [33]: 4.1 µM | TGI [34]: 3.45 µM | TGI [57]: 6.22 µM | TGI [37]: 4.67 µM | TGI [38]: 3.4 µM | TGI [39]: 5.21 µM | TGI [40]: 0.755 µM | TGI [41]: 4.07 µM | TGI [58]: 6.23 µM | TGI [42]: 12.4 µM | TGI [59]: 5.79 µM | TGI [43]: > 100 µM | TGI [44]: 5.34 µM | TGI [45]: 4.01 µM | TGI [46]: 4.08 µM | TGI [47]: 3.75 µM | TGI [48]: 56.4 µM | TGI [49]: 5.04 µM | TGI [50]: 2.44 µM | TGI [51]: 2.95 µM | TGI [52]: 7.43 µM | TGI [53]: 3.41 µM | TGI [54]: > 21.9 µM | TGI [55]: 14.3 µM

— PubChem BioAssay (NCI)
